Here are results for one compound from patent US9327038B2, “Stable activatable particles as radiotherapeutic agents for the treatment of disease” (The University of North Carolina at Chapel Hill, priority 2011, dated 2016).

The subject of data set [1] is SKOV-3 human ovarian tumor cells. The following applies: mouse, in vivo, ip.
Data set [2] has the same test system. Briefly: Survival of SKOV-3 ovarian tumor mice after intraperitoneal treatment. Type of data set: in vivo, athymic (nu/nu) mice. The note with it: 73-day period following implantation; i.p. injection twenty days after implantation (108.7 μCi for ^166Ho groups). As for the experimental part:
An additional 14 SKOV-3 ovarian tumor mice received no treatment and served as the control group.
Statistical analyses were performed to compare the fraction of mice that survived over the course of the 73-day period following implantation. […] FIG. 6.

The test system of data set [3] is NSCLC A549-luc-c8 cells. Briefly: Biodistribution after intravenous injection in NSCLC A549-luciferase tumor-bearing mice. Type of data set: in vivo, athymic (nu/nu) mice. The note with it: one week after i.v. injection, 300 μCi (Example 14 particles). As for the experimental part:
NSCLC A549-luciferase tumor-bearing mice were prepared by injecting approximately one million NSCLC A549-luc-c8 cells into the lung parenchyma of athymic (nu/nu) mice. Implantation and tumor progression were monitored by detecting luciferase bioluminescence following luciferin injections. FIG. 15A.

Regarding `CC(=O)C=C(C)[O][166Ho]([O]C(C)=CC(C)=O)[O]C(C)=CC(C)=O` [^166Ho(AcAc)3], the “^166Ho in tumors, percent initial dose per gram” value in data set [1] is 15.4±2.7 % ID/g; in data set [3], “not retained”. Besides, the surviving animals in data set [2] turned out to be 66.7%.
